Activity calls are given as the source filed them. The rule behind the calls is not given here.
Key:
Format in all cases: functional, cell-based
[1] = target: T1, Taste receptor type 2 member 46 (Homo sapiens, UniProt P59540); assay: Antagonist activity at recombinant human N-terminal rat ST3 receptor-fused TAS2R46 expressed in HEK293T cells co-expressing Galpha16gust44 assessed as inhibition of 300 uM denatonium benzoate-induced intracellular calcium level 100 uM by FLIPR assay
T1 sequence (P59540 whole entry): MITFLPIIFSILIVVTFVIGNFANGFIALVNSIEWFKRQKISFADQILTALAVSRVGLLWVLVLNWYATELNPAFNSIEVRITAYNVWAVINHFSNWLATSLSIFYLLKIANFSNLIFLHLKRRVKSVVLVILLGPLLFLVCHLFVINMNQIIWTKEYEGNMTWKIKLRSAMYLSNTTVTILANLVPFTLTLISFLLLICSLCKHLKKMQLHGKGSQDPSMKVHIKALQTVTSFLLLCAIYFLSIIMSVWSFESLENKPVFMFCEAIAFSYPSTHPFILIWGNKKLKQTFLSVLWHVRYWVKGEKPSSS

[2] = target: T1, Taste receptor type 2 member 46; assay: Antagonist activity at recombinant human N-terminal rat ST3 receptor-fused TAS2R46 expressed in HEK293T cells co-expressing Galpha16gust44 assessed as inhibition of 300 uM picrotoxinin-induced intracellular calcium level 100 uM by FLIPR assay
[3] = target: Taste receptor type 2 member 31 (Homo sapiens) (UniProt P59538); assay: Antagonist activity at recombinant human N-terminal rat ST3 receptor-fused TAS2R44 expressed in HEK293T cells co-expressing Galpha16gust44 assessed as inhibition of aristolochic acids-induced intracellular calcium level at 100 uM by FLIPR assay
Sequence of Taste receptor type 2 member 31 (Homo sapiens) (P59538 whole entry, the tested form may be a part): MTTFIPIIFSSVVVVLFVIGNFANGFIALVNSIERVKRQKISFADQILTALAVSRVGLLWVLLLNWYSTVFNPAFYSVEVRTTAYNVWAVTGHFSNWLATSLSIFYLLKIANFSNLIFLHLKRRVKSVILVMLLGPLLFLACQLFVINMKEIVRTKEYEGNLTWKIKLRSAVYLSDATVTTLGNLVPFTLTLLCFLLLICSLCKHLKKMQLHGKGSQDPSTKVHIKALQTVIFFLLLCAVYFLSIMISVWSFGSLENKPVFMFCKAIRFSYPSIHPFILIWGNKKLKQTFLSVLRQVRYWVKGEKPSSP

[4] = target: Taste receptor type 2 member 42 (Homo sapiens) (UniProt Q7RTR8); assay: Agonist activity at recombinant human N-terminal rat ST3 receptor-fused TAS2R42 expressed in HEK293T cells co-expressing Galpha16gust44 assessed as effect on intracellular calcium level at 100 uM by FLIPR assay
Sequence of Taste receptor type 2 member 42 (Homo sapiens) (Q7RTR8 whole entry, the tested form may be a part): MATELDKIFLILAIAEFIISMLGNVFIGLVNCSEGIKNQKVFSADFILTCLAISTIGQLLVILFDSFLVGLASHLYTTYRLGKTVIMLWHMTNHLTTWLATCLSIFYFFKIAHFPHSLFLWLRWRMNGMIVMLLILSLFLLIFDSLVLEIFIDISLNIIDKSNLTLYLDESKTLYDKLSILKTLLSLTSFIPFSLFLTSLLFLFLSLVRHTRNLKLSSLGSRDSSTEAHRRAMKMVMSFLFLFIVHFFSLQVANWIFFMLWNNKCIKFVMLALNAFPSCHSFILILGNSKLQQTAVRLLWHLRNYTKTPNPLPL

[5] = target: T2, Taste receptor type 2 member 16 (Homo sapiens) (UniProt Q9NYV7); assay: Agonist activity at recombinant human N-terminal rat ST3 receptor-fused TAS2R16 expressed in HEK293T cells co-expressing Galpha16gust44 assessed as effect on intracellular calcium level at 100 uM by FLIPR assay
T2 sequence (whole entry): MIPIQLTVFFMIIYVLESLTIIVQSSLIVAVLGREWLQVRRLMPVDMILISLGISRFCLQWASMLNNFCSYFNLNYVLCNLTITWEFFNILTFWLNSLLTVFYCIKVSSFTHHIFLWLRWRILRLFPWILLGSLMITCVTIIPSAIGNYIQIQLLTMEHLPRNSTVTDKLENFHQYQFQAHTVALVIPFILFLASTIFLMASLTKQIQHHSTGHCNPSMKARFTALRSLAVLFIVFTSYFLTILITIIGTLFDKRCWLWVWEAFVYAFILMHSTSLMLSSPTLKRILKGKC

[6] = target: Taste receptor type 2 member 5 (Homo sapiens) (UniProt Q9NYW4); assay: Agonist activity at recombinant human N-terminal rat ST3 receptor-fused TAS2R5 expressed in HEK293T cells co-expressing Galpha16gust44 assessed as effect on intracellular calcium level at 100 uM by FLIPR assay
Sequence of Taste receptor type 2 member 5 (Homo sapiens) (Q9NYW4 whole entry, the tested form may be a part): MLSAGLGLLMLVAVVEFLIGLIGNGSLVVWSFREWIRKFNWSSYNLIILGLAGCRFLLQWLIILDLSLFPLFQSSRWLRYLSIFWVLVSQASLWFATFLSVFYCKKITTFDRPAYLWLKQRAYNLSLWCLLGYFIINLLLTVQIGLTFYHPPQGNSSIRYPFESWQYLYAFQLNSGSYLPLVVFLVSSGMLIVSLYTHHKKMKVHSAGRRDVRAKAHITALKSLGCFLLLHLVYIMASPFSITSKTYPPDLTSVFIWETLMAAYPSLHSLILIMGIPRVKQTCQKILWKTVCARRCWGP

[7] = target: Taste receptor type 2 member 60 (Homo sapiens) (UniProt P59551); assay: Agonist activity at recombinant human N-terminal rat ST3 receptor-fused TAS2R60 expressed in HEK293T cells co-expressing Galpha16gust44 assessed as effect on intracellular calcium level at 100 uM by FLIPR assay
Sequence of Taste receptor type 2 member 60 (Homo sapiens) (P59551 whole entry, the tested form may be a part): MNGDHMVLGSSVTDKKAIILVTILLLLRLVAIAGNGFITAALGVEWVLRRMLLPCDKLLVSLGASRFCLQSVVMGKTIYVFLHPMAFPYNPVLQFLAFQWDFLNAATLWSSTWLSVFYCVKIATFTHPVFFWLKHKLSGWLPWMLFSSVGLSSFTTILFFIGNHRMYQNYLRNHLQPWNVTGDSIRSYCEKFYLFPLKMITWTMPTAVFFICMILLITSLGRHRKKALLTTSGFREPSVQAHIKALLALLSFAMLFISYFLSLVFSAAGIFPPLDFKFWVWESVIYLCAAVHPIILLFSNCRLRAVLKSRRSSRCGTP

[8] = target: T3, Taste receptor type 2 member 13 (Homo sapiens) (UniProt Q9NYV9); assay: Agonist activity at recombinant human N-terminal rat ST3 receptor-fused TAS2R13 expressed in HEK293T cells co-expressing Galpha16gust44 assessed as effect on intracellular calcium level at 100 uM by FLIPR assay
T3 sequence (whole entry): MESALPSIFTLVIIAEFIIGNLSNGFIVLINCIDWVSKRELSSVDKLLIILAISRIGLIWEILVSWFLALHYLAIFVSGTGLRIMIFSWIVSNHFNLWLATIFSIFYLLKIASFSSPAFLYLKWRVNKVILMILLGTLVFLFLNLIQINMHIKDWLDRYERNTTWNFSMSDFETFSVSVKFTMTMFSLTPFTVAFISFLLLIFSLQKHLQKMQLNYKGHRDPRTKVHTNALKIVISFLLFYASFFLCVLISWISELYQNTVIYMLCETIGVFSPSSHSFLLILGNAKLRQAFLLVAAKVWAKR

[9] = target: Taste receptor type 2 member 40 (Homo sapiens) (UniProt P59535); assay: Agonist activity at recombinant human N-terminal rat ST3 receptor-fused TAS2R40 expressed in HEK293T cells co-expressing Galpha16gust44 assessed as effect on intracellular calcium level at 100 uM by FLIPR assay
Sequence of Taste receptor type 2 member 40 (Homo sapiens) (P59535 whole entry, the tested form may be a part): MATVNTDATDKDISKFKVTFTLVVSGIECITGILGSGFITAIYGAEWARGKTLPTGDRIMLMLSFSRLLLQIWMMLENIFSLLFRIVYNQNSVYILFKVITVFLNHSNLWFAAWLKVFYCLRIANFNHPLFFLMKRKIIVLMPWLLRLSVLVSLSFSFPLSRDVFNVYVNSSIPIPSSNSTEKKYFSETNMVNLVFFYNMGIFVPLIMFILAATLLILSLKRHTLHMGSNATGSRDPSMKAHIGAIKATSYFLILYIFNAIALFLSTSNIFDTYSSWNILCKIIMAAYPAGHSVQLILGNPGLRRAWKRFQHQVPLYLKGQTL

[10] = target: Taste receptor type 2 member 19 (Homo sapiens) (UniProt P59542); assay: Agonist activity at recombinant human N-terminal rat ST3 receptor-fused TAS2R48 expressed in HEK293T cells co-expressing Galpha16gust44 assessed as effect on intracellular calcium level at 100 uM by FLIPR assay
Sequence of Taste receptor type 2 member 19 (Homo sapiens) (P59542 whole entry, the tested form may be a part): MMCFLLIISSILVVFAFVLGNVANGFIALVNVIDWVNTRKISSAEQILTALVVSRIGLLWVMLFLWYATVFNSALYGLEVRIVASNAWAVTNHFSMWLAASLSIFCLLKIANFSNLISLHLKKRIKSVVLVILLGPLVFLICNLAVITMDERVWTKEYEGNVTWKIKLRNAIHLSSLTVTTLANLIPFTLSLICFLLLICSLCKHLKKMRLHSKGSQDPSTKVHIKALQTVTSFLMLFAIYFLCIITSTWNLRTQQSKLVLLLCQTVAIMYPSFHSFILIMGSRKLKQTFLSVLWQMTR

[11] = target: T4, Taste receptor type 2 member 30 (Homo sapiens) (UniProt P59541); assay: Agonist activity at recombinant human N-terminal rat ST3 receptor-fused TAS2R47 expressed in HEK293T cells co-expressing Galpha16gust44 assessed as effect on intracellular calcium level at 100 uM by FLIPR assay
T4 sequence (whole entry): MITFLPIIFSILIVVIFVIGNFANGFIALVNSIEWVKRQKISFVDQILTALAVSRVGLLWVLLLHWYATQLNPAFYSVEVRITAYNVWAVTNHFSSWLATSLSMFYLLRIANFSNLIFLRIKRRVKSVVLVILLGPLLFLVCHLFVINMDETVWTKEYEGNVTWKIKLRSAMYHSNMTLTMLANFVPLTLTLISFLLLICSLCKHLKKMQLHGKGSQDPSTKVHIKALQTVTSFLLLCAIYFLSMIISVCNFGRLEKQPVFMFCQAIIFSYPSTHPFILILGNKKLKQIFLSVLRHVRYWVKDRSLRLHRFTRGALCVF

[12] = target: T5, Taste receptor type 2 member 3 (Homo sapiens) (UniProt Q9NYW6); assay: Agonist activity at recombinant human N-terminal rat ST3 receptor-fused TAS2R3 expressed in HEK293T cells co-expressing Galpha16gust44 assessed as effect on intracellular calcium level at 100 uM by FLIPR assay
T5 sequence (whole entry): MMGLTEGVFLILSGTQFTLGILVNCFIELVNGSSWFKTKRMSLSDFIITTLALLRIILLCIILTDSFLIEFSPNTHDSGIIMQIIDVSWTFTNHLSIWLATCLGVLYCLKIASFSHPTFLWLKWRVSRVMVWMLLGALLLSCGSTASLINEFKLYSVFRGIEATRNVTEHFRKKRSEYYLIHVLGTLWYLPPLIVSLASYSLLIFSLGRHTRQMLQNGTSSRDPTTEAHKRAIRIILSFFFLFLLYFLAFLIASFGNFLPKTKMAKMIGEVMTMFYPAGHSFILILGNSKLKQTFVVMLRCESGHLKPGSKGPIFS

SMILES | IC50 [1] [µM] | IC50 [2] [µM] | inhibition [3] | Activity [4] | Activity [5] | Activity [6] | Activity [7] | Activity [8] | Activity [9] | Activity [10] | Activity [11] | Activity [12]
C/C1=C\C[C@H](O)[C@@H](C)C[C@H]2OC(=O)[C@@H](C)C2CC1 (some centres not stated) | 51.4 | 22.9 | Active |  |  |  |  |  |  |  |  | 
C/C1=C\C[C@H](O)/C(C)=C/[C@H]2OC(=O)[C@@H](C)C2CC1 (some centres not stated) |  |  |  | inactive | inactive | inactive | inactive | inactive | inactive | inactive | inactive | inactive
